Patent US20240002424A1, “HEXOSAMINE COMPOUNDS AND METHODS THEREOF” (National Institute of Immunology, priority 2021, published 2024)

Tests used:
Format in all cases: cell-based, human
Jurkat cells = assay: NeuAz expression on the cell surface by SPAAC with DBCO-Cy5 and flow cytometry, competition with Ac4ManNAz (1c); settings: for NeuAz expression upon co-incubation with Ac4ManNAz: Ac4ManNAz (Z) 50 μM plus analogue at 10, 25, 50 μM; for NeuAz expression upon co-incubation with Ac4ManNAz / reduction in NeuAz expression upon co-incubation: 24 h; for reduction in NeuAz expression upon co-incubation: 0-50 μM with 1c 50 μM, simultaneous addition
Procedure: FIG. 5 illustrates competitive processing by compounds of the present invention (ManNAc compounds). ManNAc compounds competitively reduce the expression of N-azidoacetyl-D-neuraminic acid (NeuAz)-carrying sialoglycans through the metabolic processing of Ac4ManNAz. Jurkat (human T-lymphoma) cells were incubated with Ac4ManNAz (Z) (50 μM) alone, co-incubated with GL-2, GL-3, MA-2, or MA-3 (at various concentrations such as 10,
25, and 50 μM) for 24 h. Expression of N-azidoacetyl-D-neuraminic acid (NeuAz) on the cell surface sialoglycans was estimated using strain-promoted azide-alkyne cycloaddition (SPAAC) with DBCO-Cy5 and analyzed by flow cytometry. […] GL-2 was used for comparative study and the structure of this compound is as below.
Jurkat cells (3.0×10^5 cells/mL; 2.5 mL per well in 6-well plates) in complete medium were treated with either vehicle (D) or Compound 1c; Untreated Jurkat cells, without addition of vehicle, were also included as additional controls. Cells were harvested at 48 h, washed thrice with PBS (3×0.5 mL) (3000×g, 2.0 min). Prior to the last wash cells were counted and were aliquoted to 1.0×10^6 cells per sample in 1.5 mL microcentrifuge tubes and centrifuged. The cells were gently resuspended in PBS ([…]) and treated with DBCO-Cy5 ([…]) and incubated at 37° C. (on a Torrey-Pines dry heating bath with mild shaking). After one hour, the cells were washed using FSB (0.5 mL, 3000×g, 2.0 min, room temperature), resuspended in PBS (250 mL), treated with PI (2.5 mg/mL), and analyzed using BD FACSCanto and FACSDiva Version 6.1.3. The cells were gated for PI-negative population for 10,000 events. Two replicate samples were prepared for each conditions and each sample was counted twice.
Estimation of NeuAz expression by 1c in the presence of peracetylated ManNAc analogues: Jurkat cells (3.0×10^5 cells/mL in 3.0 mL per well in 6-well plates) were incubated with (i) D, (ii) 1a, 1b, 1c, or 1d alone (50 mM) or (iii) 1a, 1b, or 1d (50 mM) in combination with 1c (50 mM). After 24 h, cells were harvested, washed using FSB, aliquoted to 5.0×10^5 cells per sample, and processed as mentioned above for estimation of NeuAz expression using DBCO-Cy5 ([…]). Experiments using HL-60 cells were performed using the same procedure. […]
Effect of GlcNAc and ManNAc analogues on NeuAz expression: Jurkat cells were treated with 1a, 1b, 2a, or 2b (10, 25, and 50 mM for each analogue) in combination with 1c (50 mM). Cells treated with 1c (50 mM) alone were considered as a reference. After 24 h, cells were harvested, processed, labelled with DBCO-Cy5 ([…]), and analysed by flow cytometry as mentioned above.
In order to evaluate the metabolism, Jurkat (human T-lymphoma) cells were selected and incubated with ManNAc analogues either alone (50 μM) or in combination with 1c (50 μM) for 48 h. Expression of NeuAz on cell surface was estimated by flow cytometry through the copper-free bio-orthogonal strain-promoted azide-alkyne cycloaddition (SPAAC) reaction using dibenzocyclooctyne-Cy5 (DBCO-Cy5). The conditions for click reaction were optimized for various concentrations of DBCO-Cy5 and time course of SPAAC reaction in Jurkat cells. Based on the optimization results, incubation time of 30 min at 37° C. for 5.0×10^5 cells (pre-incubated with 1c for 48 h) with 20 μM of DBCO-Cy5 in 100 μL total volume for experiments with ManNAc analogues was chosen. […] In order to test the dose-dependency of this inhibitory effect on NeuAz expression and to establish competitive metabolic processing, Jurkat cells were first treated with either 1a or 1b (0-50 μM) followed by addition of 1c (50 μM) at 12 h and estimation of NeuAz at 48 h. As expected, the suppression of NeuAz expression was substantially higher when added with a 12 h delay compared to simultaneous addition, in a dose-dependent manner. […] By contrast simultaneous addition resulted only in a 10% reduction of NeuAz for both 1a and 1b (FIG. 6C and FIG. 7B).

HL-60 cells [1] = assay: Cell surface sialyl-Lewis-X (CD15s) by anti-CD15s (CSLEX1) flow cytometry; settings: 50 μM, 24 h
Procedure: Effect of ManNAc analogues on the expression of sialyl-Lewis-X and Lewis-X: HL-60 cells (3.0×10^5 cells/mL in 2.0 mL complete medium in 6 well plate) were treated with D (vehicle), 1a, 1b, 1c, 1d, 1e, 1f, or 1g (50 PM), along with untreated (U) control. After 24 h, cells were harvested and washed with PBS (3×0.5 mL, 3000×g, 3.0 min at room temperature). Prior to last wash, cells were counted using Z2 coulter counter and aliquoted at 2.5×10^5 cells per sample and stained with either mouse anti-human CD15s (CSLEX1) (1.25 μg/mL) or mouse anti-human CD15 (HI98) (2.5 μg/mL) in HEPES/CaCl2) buffer (30 mM HEPES, 110 mM NaCl, 10 mM KCl, 2 mM MgCl2, 10 mM glucose, 1.5 mM CaCl2) containing 0.1% bovine serum albumin, pH 7.3) (total volume of 100 μL) for 30 min at 4° C. Cells were washed with HEPES/CaCl2 buffer (2×0.5 mL) and stained with AlexaFluor488-conjugated anti-mouse IgM (2.5 μg/mL) (for both CD15s and CD15) in 100 μL HEPES/CaCl2 for 30 min at 4° C. Cells were washed with HEPES/CaCl2 buffer (2×0.5 mL), resuspended in PBS (0.2 mL), treated with PI (2.5 μg/ml) and analysed by BD FACSVerse. Samples treated with (i) isotype antibodies followed by secondary antibody and (ii) secondary antibody alone were prepared as controls. Single Cells were gated for PI-negative population for 10,000 events and analysed by flow cytometry. Two replicate samples were prepared for each condition and each sample was counted twice. Three independent experiments were performed. Data was analysed using FlowJo V10. For plotting graph and calculation of significant probability ‘p’ values, two-way ANOVA with Dunnett's multiple comparison tests was employed in GraphPad Prism 8.
Time course of CD15s expression: HL-60 cells (3.0×10^5 cells/mL in 2.5 mL complete medium in 6-well plates) were incubated with D, 1a, 1b, or 1d (50 mM). At each time point, from day 1 to day 6, the cells were harvested from the entire contents of the well, washed, and aliquoted to 5.0×10^5 cells per sample, and immuno-stained using anti-CD15s (CSLEX1) antibody as mentioned above. On day 3, 4, and 5 complete media (1.0 mL) was added to each remaining well in order to compensate for media exhaustion. No contents were removed from the well during the period.

HL-60 cells [2] = assay: Cell density as a measure of proliferation/cytotoxicity; settings: 100 μM, cell density measured at 24, 48, and 72 h
HL-60 cells [3] = assay: Total and glycoside bound sialic acids by periodate-resorcinol assay; settings: 100 μM, 48 h
Procedure: Total sialic acids were measured following reported procedures. HL-60 cells (3.0×10^5 cells/mL in 10 mL complete medium in 10 cm diameter Petri dishes) were incubated with D, 1a, 1b, 1c, 1d, 1e, 1f, 1g, 2a, or 2b (100 mM each), along with untreated (U) controls. After 48 h, cells were harvested, washed with PBS (3×5.0 mL; 3000×g, for 2.0 min), aliquoted to 2×10^6 cells per sample and resuspended in PBS (150 mL) in 1.5 mL microcentrifuge tubes. Cells were lyzed by three freeze-thaw cycles and the total lysates were subjected to periodate-resorcinol assay. Briefly, lysates (150 mL) were treated with 0.4 M aqueous periodic acid (6.67 mM) or (2.5 mL) and incubated either on ice for 15 min (for measurement of total sialic acids) or at 37° C. for 1.0 h (for measurement of glycoconjugate bound sialic acids). About 10 mL of reagent cocktail was prepared using 6% w/v of aqueous resorcinol (1.0 mL), 2.5 mM copper (II) sulfate (1.0 mL), 44% of concentrated hydrochloric acid (4.4 mL), and water (3.6 mL). The mixture was then treated with the reagent cocktail (250 mL per sample), boiled at 100° C. for 10 min, rapidly quenched in an ice-bath and treated with tert-butanol (250 mL). The contents were centrifuged and the supernatants were aliquoted (200 mL) into 96-well plates and the absorbance at 630 nm was measured. At least three replicates were prepared for each condition.

HL-60 cells [4] = assay: NeuAz expression by SPAAC with DBCO-Cy5 and flow cytometry, competition with 1c; settings: 50 μM with 1c 50 μM, 24 h
Procedure: Estimation of NeuAz expression by 1c in the presence of peracetylated ManNAc analogues: Jurkat cells (3.0×10^5 cells/mL in 3.0 mL per well in 6-well plates) were incubated with (i) D, (ii) 1a, 1b, 1c, or 1d alone (50 mM) or (iii) 1a, 1b, or 1d (50 mM) in combination with 1c (50 mM). After 24 h, cells were harvested, washed using FSB, aliquoted to 5.0×10^5 cells per sample, and processed as mentioned above for estimation of NeuAz expression using DBCO-Cy5 ([…]). Experiments using HL-60 cells were performed using the same procedure.
Having confirmed metabolic acceptability in Jurkat cells, the compounds were tested on HL-60 (human acute myeloid leukemia) cells which are a reliable model for neutrophil adhesion. The effect on competitive suppression of NeuAz expression was studied using 1c as a reporter. HL-60 cells were treated with 1c either alone (50 μM) or in combination with ManNAc analogues (50 μM), including the straight chain derivatives, for 24 h followed by DBCO-Cy5 ligation. […] The decreasing ability of linear alkyl moieties (1d-1g), as a function of chain length, for suppression of NeuAz expression is in contrast to the cycloalkyl moieties. […] Similarly, 1a induced a reduction of 40% compared to only a 15% reduction by 1f.

Row | SMILES | NeuAz expression upon co-incubation with Ac4ManNAz (Jurkat cells) | increase in binding of CSLEX1 antibody (sLeX) compared to controls (HL-60 cells [1]) | decrease in cell density (HL-60 cells [2]) | glycoside bound sialic acid levels (in words) (HL-60 cells [3]) | ratio of total sialic acids to glycoside bound sialic acids vs untreated cells (HL-60 cells [3]) | total sialic acid levels (in words) (HL-60 cells [3]) | reduction in NeuAz expression upon co-incubation (Jurkat cells) | also measured
1 | CC(=O)OC[C@H]1OC(OC(C)=O)[C@@H](NC(=O)C2CCC2)[C@@H](OC(C)=O)[C@@H]1OC(C)=O (mixture of isomers) [Compound 1b, (3S,4R,5S,6R)-6-(acetoxymethyl)-3-(cyclobutanecarboxamido)tetrahydro-2H-pyran-2,4,5-triyl triacetate] | reduced competitively in a dose-dependent manner | – | – | – | – | – | – | –
2 | CC(=O)OC[C@H]1OC(OC(C)=O)[C@H](NC(=O)C2CCC2)[C@@H](OC(C)=O)[C@@H]1OC(C)=O (mixture of isomers) [Compound 2b, (3R,4R,5S,6R)-6-(acetoxymethyl)-3-(cyclobutanecarboxamido)tetrahydro-2H-pyran-2,4,5-triyl triacetate] | not | – | – | – | – | – | – | –
3 | CC(=O)OC[C@H]1O[C@H](OC(C)=O)[C@@H](NC(=O)CN=[N+]=[N-])[C@@H](OC(C)=O)[C@@H]1OC(C)=O [Compound 1c, 1,3,4,6-tetra-O-acetyl-2-azidoacetylamino-2-deoxy-α-D-mannopyranose] | – | 1.4 fold | ~10% | comparable to untreated cells | – | – | – | NeuAz expression / DBCO-Cy5 signal, compound alone (Jurkat cells; 50 μM alone, 48 h): robust expression of NeuAz
4 | CCC(=O)N[C@@H]1[C@@H](OC(C)=O)O[C@H](COC(C)=O)[C@@H](OC(C)=O)[C@@H]1OC(C)=O [Compound 1e, 1,3,4,6-tetra-O-acetyl-2-(1-propanoyl)amino-2-deoxy-α-D-mannopyranose] | – | ~2.5 fold | – | – | higher ratios of free sialic acid | – | – | NeuAz expression with respect to 1c alone (100%) (HL-60 cells [4]): 65%; suppression of NeuAz expression (in words) (HL-60 cells [4]): significant suppression; increase in glycoside bound sialic acid levels (HL-60 cells [3]): ~10%; increase in total sialic acid levels vs untreated cells (HL-60 cells [3]): 2.3 fold
5 | CC(=O)OC[C@H]1O[C@@H](OC(C)=O)[C@H](NC(=O)C2CC2)[C@@H](OC(C)=O)[C@@H]1OC(C)=O [Compound 2a, 1,3,4,6-tetra-O-acetyl-2-cyclopropanoylamino-2-deoxy-β-D-glucopyranose] | not | – | ~10% | comparable to untreated cells | lower ratios | comparable to untreated cells | negligible reduction | –
6 | CC(=O)OC[C@H]1OC(OC(C)=O)[C@H](NC(=O)C2CCC2)[C@@H](OC(C)=O)[C@@H]1OC(C)=O (stereo partly drawn) [Compound 2b, (3R,4R,5S,6R)-6-(acetoxymethyl)-3-(cyclobutanecarboxamido)tetrahydro-2H-pyran-2,4,5-triyl triacetate] | – | – | ~10% | comparable to untreated cells | lower ratios | comparable to untreated cells | negligible reduction | –
